Measured values as given in US11459337B2, “Isothiazolo[5,4-D]pyrimidine compound as IRAK4 inhibitor” (priority 2018, dated 2022).
Read-outs that look alike come from different tables or passages of the source.

Legend:
human IRAK4 = human IRAK4 (Homo sapiens (Human), UniProt Q9NWZ3); assay: 33P-labeled kinase activity assay (Reaction Biology Corp), in vitro enzymatic activity; type: biochemical; settings: 20 μM ATP, 3 nM kinase, MBP substrate
Method: The inhibitory activity of the test compounds against human IRAK4 was evaluated by measuring IC50 values in a ^33P-labeled kinase activity assay (Reaction Biology Corp). Buffer conditions: 20 mM Hepes (pH 7.5), 10 mM MgCl2, 1 mM EGTA, 0.02% Brij35, 0.02 mg/mL BSA, 0.1 mM Na3VO4, 2 mM DTT, 1% DMSO. Procedures: The test compound was dissolved in DMSO at room temperature to prepare a 10 mM solution for later use. The substrate was dissolved in fresh buffer, to which the kinase was added and mixed well. The DMSO solution containing the test compound was added to the above mixed reaction system by an acoustic technique (Echo 550). The concentrations of the compounds in reaction system were 10 μM, 3.33 μM, 1.11 μM, 0.370 μM, 0.123 μM, 41.2 nM, 13.7 nM, 4.57 nM, 1.52 nM, and 0.508 nM. After 15 minutes of incubation, the reaction was started by adding ^33P-ATP (activity: 0.01 μCi/μL; the corresponding concentration is listed in Table 1). Supplier's catalog number, lot number and concentration information in the reaction system for IRAK4 and its substrate are listed in Table 1. After 120 minutes of reaction at room temperature, the resulting solution was loaded on P81 ion exchange chromatography paper sheet (Whatman #3698-915). After repeated washing with 0.75% phosphoric acid solution, the radioactivity of the phosphorylated substrate residue on the paper sheet was measured. The kinase activity data are shown as a comparison of the kinase activity of the test compound and the kinase activity of the blank (DMSO only) and a curve was fitted using Prism4 software (GraphPad) to give IC50 values, with the experimental results shown in Table 2. [table]

THP-1 cells = assay: TNF-α ELISA assay in LPS-stimulated THP-1 cells; type: cell-based, human; settings: TNF-α in supernatant, 150 ng/mL LPS
Method: TNF-α ELISA Assay in THP-1 Cells THP-1 human acute unicellular leukemia cells were purchased from ATCC (Cat #TIB-202) and incubated in a 37° C., 5% CO2 incubator. The medium was RPMI1640 (Gibco, Cat #22400-105), the supplementary was 10% FBS (Gibco, Cat #10091148); 1% PenStrep (Gibco, Cat #15140); 0.05 mM 2-mercaptoethanol (Sigma, Cat #M6250). TNF-α content in the culture supernatant was measured by a TNF-α Elisa kit. TNF-α was produced by stimulation of THP-1 cells with 150 ng/mL LPS (Sigma, Cat #L6529). Normal THP-1 cells in logarithmic phase were inoculated in 96-well plates (Corning #3599) at a certain concentration (1×10^5/100 μL) and then incubated in an incubator. After two hours, 16.7 μL of test compound of different concentrations (8×final concentration) was added and the mixture was incubated. After one hour, 16.7 μL of 1200 ng/mL LPS was added and the mixture was incubated. After 18 hours, the culture was centrifuged and the supernatant was collected. The TNF-α content was measured by a TNF-α Elisa kit. Finally, the OD signals (OD450-OD570) were read on an envision plate reader. The OD450-OD570 signals were converted to percent inhibition. Inhibition %=(ZPE−sample)/(ZPE−HPE)×100. “HPE” represents the OD450-OD570 signal value of the control without LPS-stimulated cells, and “ZPE” represents the OD450-OD570 signal value of the control with LPS-stimulated cells. IC50 values for compounds were calculated by XLFit in the Excel. Y=Bottom+(Top−Bottom)/(1+(IC50/X)^HillSlope). Equation: […]

[1] = Pharmacokinetic study of oral and intravenous test compounds in SD rats; type: in vivo; settings: rat, plasma, SD male rats; for AUC(0-t): read-out: Area under plasma concentration-time curve AUC0-last
Method: Pharmacokinetic Study of Oral and Intravenous Test Compounds in SD Rats The test compound was mixed with a solution containing 10% of methyl pyrrolidone, 10% of polyethylene glycol stearate and 80% of water. The mixture was vortexed and sonicated to prepare a 1.5 mg/mL clarified solution, which was then filtered through a microporous membrane for later use. SD male rats aged 7 to 10 weeks were selected and administered intravenously with a dose of the candidate compound at 3 mg/kg. The test compound was mixed with 0.5% aqueous methylcellulose solution. The mixture was vortexed and sonicated to prepare a 2 mg/mL suspension for later use. SD male rats aged 7 to 10 weeks were selected and orally administered with a dose of the candidate compound at 10 mg/kg. Whole blood was collected at certain time points, and plasma was separated. The drug concentration was measured by LC-MS/MS, and pharmacokinetic parameters were calculated using Phoenix WinNonlin software (Pharsight, USA).

human IRAK4, sequence (Q9NWZ3 whole entry): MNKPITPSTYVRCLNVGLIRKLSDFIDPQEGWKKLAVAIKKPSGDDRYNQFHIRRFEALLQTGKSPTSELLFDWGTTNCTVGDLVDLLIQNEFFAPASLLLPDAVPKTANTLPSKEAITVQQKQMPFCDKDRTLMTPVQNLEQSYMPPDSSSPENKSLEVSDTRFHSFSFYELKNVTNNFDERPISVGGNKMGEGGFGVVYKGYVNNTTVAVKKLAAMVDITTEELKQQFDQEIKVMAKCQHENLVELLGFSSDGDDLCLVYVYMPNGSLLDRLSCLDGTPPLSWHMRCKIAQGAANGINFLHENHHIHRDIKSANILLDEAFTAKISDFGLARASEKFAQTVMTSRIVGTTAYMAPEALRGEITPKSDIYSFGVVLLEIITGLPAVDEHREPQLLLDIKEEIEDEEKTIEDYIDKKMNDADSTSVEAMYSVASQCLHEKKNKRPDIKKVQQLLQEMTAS

| Compound | IC50 (human IRAK4) [nM] | IC50 (THP-1 cells; Homo sapiens, THP-1, 18 h) [nM] | other results |
| --- | --- | --- | --- |
| Cc1nsc2nc(Nc3cnn(C4CCOCC4)c3)nc(O[C@H]3CC[C@H](N4CCOCC4)CC3)c12 [WX002] | 89.5 | – | – |
| Cn1cc(Nc2nc(N[C@H]3CC[C@H](N4CCOCC4)CC3)c3c(C4CCOCC4)nsc3n2)cn1 [WX005] | 8.7 | – | – |
| Cc1nsc2nc(Nc3cnn([C@H]4CCOC4)c3)nc(N[C@H]3CC[C@H](N4CCOCC4)CC3)c12 [WX006] | 9.9 | 486 | – |
| Cc1nsc2nc(Nc3cnn(C4CCOC4)c3)nc(N[C@H]3CC[C@H](N4CCOCC4)CC3)c12 (stereo partly shown) [WX008] | 27.2 | – | IC50 (THP-1 cells; 18 hours): 279 nM |
| Cc1nsc2nc(Nc3cnn(CCO)c3)nc(N[C@H]3CC[C@H](N4CCOCC4)CC3)c12 [WX010] | 45.9 | – | – |
| Cc1nsc2nc(Nc3cnn(CC(=O)O)c3)nc(N[C@H]3CC[C@H](N4CCOCC4)CC3)c12 [WX011] | 357 | – | – |
| Cc1nsc2nc(Nc3cnn(C4CCOCC4)c3)nc(N(C)[C@H]3CC[C@H](N4CCOCC4)CC3)c12 [WX013] | 60.1 | – | – |
| Cc1nsc2nc(Nc3cnn(C[C@H]4COCCO4)c3)nc(N[C@H]3CC[C@H](N4CCOCC4)CC3)c12 [WX014] | 30.3 | 663 | – |
| Cc1nsc2nc(Nc3cnn(C[C@@H]4COCCO4)c3)nc(N[C@H]3CC[C@H](N4CCOCC4)CC3)c12 [WX015] | 20.5 | 952 | – |
| Cc1nsc2nc(Nc3cnn(C4CCOCC4)c3)nc(N[C@H]3CC[C@H](N4CCNCC4)CC3)c12 [WX025] | 23.6 | – | – |
| CC(=O)N1CCN([C@H]2CC[C@H](Nc3nc(Nc4cnn(C5CCOCC5)c4)nc4snc(C)c34)CC2)CC1 [WX027] | 3.3 | 639 | – |
| CCOC(=O)N1CCN([C@H]2CC[C@H](Nc3nc(Nc4cnn(C5CCOCC5)c4)nc4snc(C)c34)CC2)CC1 [WX028] | 1.6 | 234 | – |
| Cc1nsc2nc(Nc3cnn(C4CCOCC4)c3)nc(N[C@H]3CC[C@H](N4CCN(C(C)C)CC4)CC3)c12 [WX029] | 3.8 | – | – |
| Cc1nsc2nc(Nc3cnn(C4CCOCC4)c3)nc(N[C@H]3CC[C@H](N4CCN(C)CC4)CC3)c12 [WX030] | 7.5 | 308 | – |
| Cc1nsc2nc(Nc3cnn(C4CCOCC4)c3)nc(N[C@H]3CC[C@H](N4CCN(C5CC5)CC4)CC3)c12 [WX031] | 2.4 | 317 | – |
| COC(=O)N1CCN([C@H]2CC[C@H](Nc3nc(Nc4cnn(C5CCOC5)c4)nc4snc(C)c34)CC2)CC1 (stereo partly shown) [WX032] | 15.2 | – | – |
| COC(=O)N1CCN([C@H]2CC[C@H](Nc3nc(Nc4cnn([C@@H]5CCOC5)c4)nc4snc(C)c34)CC2)CC1 [WX033] | 12.8 | – | – |
| COC(=O)N1CCN([C@H]2CC[C@H](Nc3nc(Nc4cnn([C@H]5CCOC5)c4)nc4snc(C)c34)CC2)CC1 [WX034] | 12.8 | – | – |
| COC(=O)N1CCN([C@H]2CC[C@H](Nc3nc(Nc4cnn(C)c4)nc4snc(C)c34)CC2)CC1 [WX035] | 10.7 | – | – |
| Cc1nsc2nc(Nc3cnn(C4CCOCC4)c3)nc(NC3CCC(N4CCCNCC4)CC3)c12 (stereo not shown) [WX036] | 5.5 | 4160 | – |
| Cc1nsc2nc(Nc3cnn(C4CCOCC4)c3)nc(NC3CCC(N4CCCN(C)CC4)CC3)c12 (stereo not shown) [WX037] | 9.2 | 296 | – |

| Compound | IC50 (human IRAK4) [nM] | IC50 (THP-1 cells; Homo sapiens, THP-1, 18 h) [nM] | other results |
| --- | --- | --- | --- |
| CC(=O)N1CCCN(C2CCC(Nc3nc(Nc4cnn(C5CCOCC5)c4)nc4snc(C)c34)CC2)CC1 (stereo not shown) [WX038] | 1.3 | 216 | – |
| COC(=O)N1CCCN(C2CCC(Nc3nc(Nc4cnn(C5CCOCC5)c4)nc4snc(C)c34)CC2)CC1 (stereo not shown) [WX039] | 7.9 | 139 | – |
| Cc1nsc2nc(Nc3cnn(C4CCOCC4)c3)nc(N[C@H]3CC[C@H](N4CC5CC(C4)N5)CC3)c12 [WX040] | 30 | – | – |
| Cc1nsc2nc(Nc3cnn(C4CCOCC4)c3)nc(N[C@H]3CC[C@H](N4CC5CC(C4)N5C)CC3)c12 [WX041] | 21.4 | – | – |
| CC(=O)N1C2CC1CN([C@H]1CC[C@H](Nc3nc(Nc4cnn(C5CCOCC5)c4)nc4snc(C)c34)CC1)C2 [WX043] | 12.2 | – | – |
| Cc1nsc2nc(Nc3cnn(C4CCOCC4)c3)nc(N[C@H]3CC[C@H](N4C[C@H]5C[C@@H]4CN5C)CC3)c12 [WX045] | 278 | – | – |
| COC(=O)N1C[C@H]2C[C@@H]1CN2[C@H]1CC[C@H](Nc2nc(Nc3cnn(C4CCOCC4)c3)nc3snc(C)c23)CC1 [WX047] | 29.6 | 889 | – |
| Cc1nsc2nc(Nc3cnn(C4CCOCC4)c3)nc(N[C@H]3CC[C@H](N4CCNC(=O)C4)CC3)c12 [WX048] | 460 | – | – |
| Cc1nsc2nc(Nc3cnn(C4CCOCC4)c3)nc(N[C@H]3CC[C@H](N4CCNC(C)C4)CC3)c12 (stereo partly shown) [WX049] | 11.2 | 516 | – |
| Cc1nsc2nc(Nc3cnn(C4CCOCC4)c3)nc(N[C@H]3CC[C@H](N4CCNC5(CC5)C4)CC3)c12 [WX050] | 13.4 | 689 | – |
| Cc1nsc2nc(Nc3cnn(C4CCOCC4)c3)nc(N[C@H]3CC[C@H](N4CCNCC4C)CC3)c12 (stereo partly shown) [WX051] | 13.7 | – | – |
| Cc1nsc2nc(Nc3cnn(C4CCOCC4)c3)nc(N[C@H]3CC[C@H](N4CCC(O)CC4)CC3)c12 [WX052] | 1.8 | – | – |
| Cc1nsc2nc(Nc3cnn(C4CCOCC4)c3)nc(N[C@H]3CC[C@H](N4CCOCC4=O)CC3)c12 [WX054] | 363 | – | – |
| N#CCc1nsc2nc(Nc3cnn(C4CCOCC4)c3)nc(N[C@H]3CC[C@H](N4CCOCC4)CC3)c12 [WX055] | 11.7 | 165 | – |
| O=C(O)Cc1nsc2nc(Nc3cnn(C4CCOCC4)c3)nc(N[C@H]3CC[C@H](N4CCOCC4)CC3)c12 [WX056] | 17 | – | – |
| Cc1nsc2nc(Nc3cnn(C4CCOCC4)c3)nc(N[C@H]3CC[C@H](N4CCC(C(=O)O)CC4)CC3)c12 [WX057] | 5 | – | – |
| Cc1nsc2nc(Nc3cnn(C4CCOCC4)c3)nc(N[C@H]3CC[C@H](N4CCC(N(C)C)CC4)CC3)c12 [WX058] | 2.1 | – | – |
| COC(=O)N1CCN([C@H]2CC[C@H](Nc3nc(Nc4cnn(C5CCC(F)(F)CC5)c4)nc4snc(C)c34)CC2)CC1 [WX059] | 1.1 | – | – |
| Cc1nsc2nc(Nc3cnn(C4CCOCC4)c3)nc(N[C@H]3CC[C@H](N4CC(O)C4)CC3)c12 [WX060] | 7.3 | – | – |
| NC(=O)C[C@H]1CCc2sc3ncnc(O[C@H]4CC[C@H](N5CCOCC5)CC4)c3c21 [WXR2, ND-2110, reference compound] | – | – | Vd ([1]; Intravenous, 3 mg/kg, read-out: Apparent volume of distribution Vdss): 1.6 L/kg; AUC(0-t) ([1]; Intravenous, 3 mg/kg): 3.68 µM·h; clearance ([1]; Intravenous, 3 mg/kg, read-out: Clearance CL): 33.2 mL/min/kg; half-life ([1]; Intravenous, 3 mg/kg, read-out: Half life T1/2 (converted)): 78 min; AUC(0-t) ([1]; Oral, 10 mg/kg): 2.13 µM·h; bioavailability ([1]; Oral, 10 mg/kg, read-out: Bioavailability F): 18%; Cmax ([1]; Oral, 10 mg/kg, read-out: Peak concentration Cmax): 893 nM; Tmax ([1]; Oral, 10 mg/kg, read-out: Time to peak Tmax): 36 min |
